Assay [1] relates to allergic reactions induced by the antigen-antibody interaction. Description: PCA test (Ovary), antiallergic activity on rats. The format is in vivo. The following applies: for ED50: Rattus norvegicus, iv, rats. On the procedure: The test is carried out by the PCA test-method (Ovary: J. Immun. 81, 355, 1958) and the Church-test (British J. Pharm. 46, 56-66, 1972; Immunology 29, 527-534, 1975) and as a reference substance disodium chromoglycate is used. The test was carried out on rats.

Assay [2] concerns allergic symptoms. Conditions: oral / inhaler; background statement; cited from earlier work.

Molecules are shown by their SMILES.

What is called ED50 is the dose at which the effect has come halfway, by size or by number of responders. A high value points to a need for a large dose.

With `CC1CCC(=NNc2cccc([N+](=O)[O-])c2)c2ncc(C(=O)O)c(=O)n21` (centres unmarked) [6-methyl-9-(3-nitrophenyl-hydrazono-4-oxo-6,7,8,9-tetrahydro-4H--pyrido[1,2-a]-pyrimidine-3-carboxylic acid], it took a dose of 0.52 µmol/kg to reach the 50% effect level in assay [1] (ED50). As for `CCOc1ccc(NN=C2CCC(C)n3c2ncc(C(=O)O)c3=O)cc1` (racemic) [(±)-9-(4-ethoxyphenyl-hydrazono)-6-methyl-4-oxo-6,7,8,9-tetrahydro-4H--pyrido[1,2-a]pyrimidine-3-carboxylic acid], it took a dose of 0.87 µmol/kg to reach the 50% effect level in assay [1] (ED50).

In turn, `CC1CCC(=NNc2cccc(Cl)c2)c2ncc(C(=O)O)c(=O)n21` (centres unmarked) [9-(3-chlorophenylhydrazono)-6-methyl-4-oxo-6,7,8,9-tetrahydro-4H--pyrido[1,2-a]-pyrimidine-3-carboxylic acid] gave an ED50 in assay [1] of 0.61 µmol/kg.

`CC1CCC(=NNc2ccc(Br)cc2)c2ncc(C(=O)O)c(=O)n21` (centres unmarked) [9-(4-bromophenylhydrazono)-6-methyl-4-oxo-6,7,8,9-tetrahydro-4H--pyrido[1,2-a]-pyrimidine-3-carboxylic acid] returned an ED50 in assay [1] of 0.82 µmol/kg. As for `O=C(O)c1cc(=O)c2c(OCC(O)COc3cccc4oc(C(=O)O)cc(=O)c34)cccc2o1` [Disodium chromoglycate, 1,3-bis-(2-carboxychromon-6-yl-ox)-2-hydroxypropane, reference compound], the “oral activity (PCA test data, in words)” value in assay [1] (oral versus i.v.) is listed as “effective only when administered intravenously”. In addition, the “effectiveness by route (antiasthmatic agent, in words)” value in assay [2] was “not effective orally and it produces the desired effect only by using an inhaler”. Consider `Cc1cccc(NN=C2CCC(C)n3c2ncc(C(=O)O)c3=O)c1` (centres unmarked) [6-methyl-9-(3-methylphenyl-hydrazono)-4-oxo-6,7,8,9-tetrahydro-4H--pyrido[1,2-a]-pyrimidine-3-carboxylic acid], for which, in assay [1], it took a dose of 0.42 µmol/kg to reach the 50% effect level (ED50). Same read-out and setting: the value for `CC1CCC(=NNc2ccc(C(=O)O)cc2)c2ncc(C(=O)O)c(=O)n21` (centres unmarked) [9-(4-carboxyphenyl-hydrazono)-6-methyl-4-oxo-6,7,8,9-tetrahydro-4H--pyrido[1,2-a]pyrimidine-3-carboxylic acid] was 7.6 µmol/kg.

These data come from patent US4456752A, “Process for the preparation of 9-hydrazono-6,7,8,9-tetrahydro-4H-pyro[1,2-a]pyrimidine-4-one compounds, the salts and hydrates thereof” (Chinoin Gyogyszer es Vegyeszeti Termekek Gyara R.T., priority 1979, dated 1984).
